Test results reported in US9476099B2 (TRUSTEES OF DARTMOUTH COLLEGE, priority 2012, dated 2016).

What was measured:
Type in all cases: cell-based
[1] = system: phosphorylated H2AX in NT2/D1-R1 cells; experiment: DNA damage by induction of phosphorylated H2AX (western blot); details: three day decitabine treatment
Text: Importantly, decitabine-mediated H2AX activation also occurs in the presence of the caspase 3 inhibitor (Z-VAD-FMK) at concentrations that inhibit PARP cleavage.
(§1) SYBR green-based real-time PCR (Applied Biosystems) was employed using the ddCT method normalized to GAPDH. For western blot analysis cells were lysed in radioimmune precipitation buffer and separated by SDS-PAGE. Antibodies to actin (sc01615, Santa Cruz), 139-H2AX (Cell Signaling), PARP (c-2-10, Biomol International) and p53 (D0-1, Santa Cruz) were used.

833K-CP cells = experiment: Cell-Titre Glo viable cell growth and survival, 3 day decitabine; details: 2.5 nM, FIG. 1
Description: (§2) Indicated doses of decitabine were added fresh each day for three days to exponentially growing cultures. Viable cell growth and survival were measured. Data are normalized to no drug treatment. EC cells are NT2/D1, NT2D1/R1, 833K, 833KCP, and Tera-1. Data are the average of 3 experiments in biological duplicate except for MCF-7 cells, which were assayed twice. Error bars are standard deviation (S.D.).
(§3) Cell growth and viability of five EC cell lines (NT2/D1, NT2D1/R1, 833K, 833KCP, and Tera-1) were determined, including two cell lines that are cisplatin-resistant (NT2/D1-R1 and 833KCP). Three control somatic tumor cell lines were also tested (HCT116, MCF7 and U2OS). […] Viable cell growth and survival were measured using Cell-Titre Glo (Promega) assays. […] These higher values are similar to the values shown in FIG. 1 for somatic tumor cell lines (MCF7, U2OS and HCT116).
(§4) NT2/D1, NT2D1-R1, 833K, 833K-CP, Tera-1, U20S, and HCT116 cells were cultured in DMEM with 10% FBS supplemented with glutamine and antibiotics except for MCF7 cells that were cultured in F12-DMEM. The derivation of the NT2/D1-resistant NT2/D1-R1 cell line has been previously described (Curtin et al. 2001. Oncogene 20:2559-2569; Kerley-Hamilton et al. 2007. Biochim. Biophys. Acta 1769:209-219). Cells were treated with the indicated dosages of 5-azadeoxycytidine (5-aza-CdR) for 3 days. This drug was replenished each day. […]

833K cells = experiment: as above; details: Homo sapiens, 72 h, 3 day treatment, FIG. 1, read-out: IC50, growth inhibition
Description: as §2, §3, §4

[2] = system: RIN1, SOX15 and TLR4 in NT2/D1 cells; experiment: Real-time PCR of gene expression; details: 10 nM, 3 days, FIG. 14
Text: The graph depicts an average of triplicate sample determinations. Error bars are standard deviation. *=p<0.05; **=p<0.005.
However, methylation changes were less robust in the experiments in NT2/D1 cells. Only 12 genes were identified as having significant decreases in promoter methylation. […] These six genes included RIN1, SOX15, TLR4, GPER, TRIM54, and CD164L2.
as §1

NT2/D1 cells = experiment: Apoptosis by PARP cleavage and sub G1 DNA content; details: decitabine 10 nM, three days; NT2/D1
Description: Cells were cultured in DMEM media (Gibco) with 10% FBS. Decitabine was added fresh each day. Lentiviral control cells and the stable shRNA DNMT3B knockdown cell line (NT2/D1-R1-sh84) were described previously (Beyrouthy et al. 2009. Cancer Res. 69:9360-9366). DNMT3B knockdown was greater than 90% as confirmed by western blot analysis. Cell proliferation and survival were assessed with the CELL-TITRE GLO assay (Promega). Cell cycle analysis with propidium iodine has been previously described (Kerley-Hamilton et al. 2005. Oncogene 24:6090-6100).
as §1

Nc1ncn([C@H]2C[C@H](O)[C@@H](CO)O2)c(=O)n1 [decitabine, 5-aza-deoxycytidine]
DNA damage assessed by induction of phosphorylated H2AX [1]: induced DNA damage | inhibition at 0.0025 µM (833K-CP cells): 10% | IC50 (833K cells): 5 to 25 nM | expression of RIN1, SOX15 and TLR4 (real-time PCR) [2]: increased expression | apoptotic responses (PARP cleavage, sub G1 DNA content with G2 arrest) (NT2/D1 cells): apoptotic responses
